Experimental findings from paper PMC11305242 (Heliyon, 2024) are described below.

The target of test [1] is alpha-amylase from Aspergillus oryzae (Aspergillus oryzae, UniProt P0C1B3). Briefly: In vitro alpha-amylase inhibition assay. It counts as biochemical.
Test [2] addresses alpha-glucosidase enzyme from Saccharomyces cerevisiae recombinant. Kind of test: In vitro alpha-glucosidase inhibition assay. Type of test: biochemical. Particulars: for IC50: read-out: IC50 ± S.D. alpha-glucosidase, mean ± SD, n = 3.
For test [3], the system named is advanced glycation end products (AGEs) formation (glycated BSA). Briefly: In vitro advanced glycation end products. Type of test: biochemical. Particulars: read-out: IC50 ± S.D. advanced glycation end product inhibitory activity, 37 °C, seven days in the dark, mean ± SD, n = 3, NA = no inhibitory activity.
The subject of a further test is alpha-glucosidase. Briefly: Kinetics of alpha-glucosidase inhibition. It counts as biochemical, Saccharomyces cerevisiae. The settings on record: for mode of alpha-glucosidase inhibition: decreases in Vmax without changes in Km; for Vmax: substrate PNPG 0.25-2.0 mM.

Each structure is given as a SMILES string.

As usually defined, the IC50 is the concentration needed to halve the response being measured. Take `COc1cc(CCc2cc(OC)c(O)c(OC)c2)ccc1O` [Compound 2, moscatilin]: the figures for the IC50 in test [1], in test [2] and in test [3] were 257 ± 9.87 µM, 173 ± 5.84 µM and 168 ± 9.42 µM, respectively.

Take `Oc1ccc2c(c1)CCc1cc(O)cc(O)c1-2` [Compound 7, 2,4,7-trihydroxy-9,10-dihydrophenanthrene]: the IC50 in test [1] was determined as 617 ± 11 µM; in test [2] it was 422 ± 7 µM; in test [3] it was 411 ± 15 µM.

As a reminder, the Km is the concentration of substrate that gives half-maximal velocity. `C[C@H]1O[C@H](O[C@H]2[C@H](O)[C@@H](O)[C@@H](O[C@H]3[C@H](O)[C@@H](O)C(O)O[C@@H]3CO)O[C@@H]2CO)[C@H](O)[C@@H](O)[C@@H]1N[C@H]1C=C(CO)[C@@H](O)[C@H](O)[C@H]1O` (stereo partly drawn) [Acarbose, acarbose, reference compound]: the “mode of alpha-glucosidase inhibition” value with alpha-glucosidase was “non-competitive”. Besides, the Km in the test with alpha-glucosidase (inhibitor 200 μM) came out at 4.98 mM; in the test on alpha-glucosidase (inhibitor 400 μM), 4.96 mM. The Vmax in the test on alpha-glucosidase (inhibitor 200 μM) was 0.045 △OD/min; with alpha-glucosidase (inhibitor 400 μM) it was 0.030 △OD/min.

On to `COc1cc(O)cc2ccc3cccc(O)c3c12` [Compound 5, moscatin], for which the “IC50 ± S.D. alpha-amylase” value in test [1] (mean ± SD, n = 3, NA = no inhibitory activity) is “did not inhibit alpha-amylase activity”. In addition, the “fold lower alpha-glucosidase IC50 than acarbose” value in test [2] (IC50 relative to acarbose) is “approximately 10 fold”. In addition, the IC50 in test [2] worked out at 32.5 ± 1.04 µM. For the same compound, in the test with alpha-glucosidase (Ki relative to acarbose), the “fold greater alpha-glucosidase inhibitory potency than acarbose (Ki)” value is given as “approximately 9 fold”. Moreover, in the test on alpha-glucosidase, the “mode of alpha-glucosidase inhibition” value is “non-competitive”. In the test with alpha-glucosidase (inhibitor 30 μM), the Km came out at 1.62 mM and the Vmax was 0.017 △OD/min. Also, in the test on alpha-glucosidase (inhibitor 60 μM), the Km is 1.66 mM and the Vmax is given as 0.011 △OD/min.

On to `N=C(N)NN` [Aminoguanidine, aminoguanidine, reference compound], for which, in test [3], the IC50 came to 327 ± 5.95 µM.

As for `COc1cc(O)cc(CCc2ccc(O)c(OC)c2)c1` [Compound 4, gigantol], the IC50 in test [1] was found to be 332 ± 4.23 µM; in test [2] it was 231 ± 11.3 µM.

`COc1cc2c(c(O)c1OC)-c1ccc(O)cc1CC2` [Compound 3, ephemeranthol A]: the IC50 in test [1] worked out at 280 ± 9.76 µM; in test [2] it was 62.5 ± 2.85 µM.

Regarding `COc1cc(O)c2c(c1)CCc1cc(O)ccc1-2` [Compound 6, lusianthridin], the IC50 in test [1] is 372.2 ± 2.74 µM; in test [2], 63.89 ± 0.27 µM.
